Measured values as given in DBAASP.
In brackets after ≈: the same amount, converted by molar mass. Several values for one entry are separate records, joined by “and”; a condition that tells them apart may be missing. Identical values can stand only once. Blank lines part the entries; values can stand above or below the compound they belong to.

Columns and labels:
Assay in all cases: ≥ marks a high value that may be exact or a test limit, other limits are often not marked, values filed in µg/mL are converted to µM
[1] = tested on: Bacillus subtilis AB91021
[2] = tested on: Bacillus thuringiensis AB92037
[3] = tested on: Escherichia coli AB94012
[4] = tested on: Pseudomonas aeruginosa AB93066
[5] = tested on: Staphylococcus aureus AB94004
[6] = tested on: Staphylococcus sp.
[7] = tested on: Aspergillus flavus KCTC 7375
[8] = tested on: Bacillus subtilis KCTC 3068
[9] = tested on: Candida albicans KCTC 7121
[10] = tested on: Escherichia coli KCTC 1682
[11] = tested on: Fusarium oxysporum KCTC 6084
[12] = tested on: Pseudomonas aeruginosa KCTC 1637
[13] = tested on: Salmonella typhimurium KCTC 1926
[14] = tested on: Serratia marcescens KCTC 1299
[15] = tested on: Staphylococcus aureus KCTC 1621
[16] = tested on: Streptococcus pyogenes KCTC 3096
[17] = tested on: Trichosporon beigelii KCTC 7251
[18] = tested on: Candida albicans M9
[19] = tested on: Escherichia coli ATCC 25922
[20] = tested on: Escherichia coli DC2
[21] = tested on: Escherichia coli K-12
[22] = tested on: Salmonella enterica serovar Minnesota 1114W
[23] = tested on: Salmonella enterica serovar Minnesota R595
[24] = tested on: Salmonella enterica subsp. enterica serovar Typhimurium LT2
[25] = tested on: Salmonella typhimurium 1102
[26] = tested on: Staphylococcus aureus 209P
[27] = tested on: Staphylococcus aureus ATCC 25923
[28] = tested on: Staphylococcus aureus ATCC 6538
[29] = tested on: Acinetobacter baumannii
[30] = tested on: Aeromonas sobria 090223
[31] = tested on: Candida albicans ATCC 2002
[32] = tested on: Candida glabrata 0902
[33] = tested on: Enterococcus faecium 1299
[34] = tested on: Escherichia coli 1342
[35] = tested on: Klebsiella pneumoniae
[36] = tested on: Nocardia asteroides 090312
[37] = tested on: Proteus mirabilis 090223
[38] = tested on: Staphylococcus aureus 090223
[39] = tested on: Staphylococcus aureus 1349
[40] = tested on: Staphylococcus aureus ATCC 2592
[41] = tested on: Stenotrophomonas maltophilia 090223
[42] = tested on: Bacillus anthracis
[43] = tested on: Bacillus cereus
[44] = tested on: Escherichia coli
[45] = tested on: Staphylococcus aureus
[46] = tested on: Bacillus subtilis ATCC 9372
[47] = tested on: Escherichia coli ATCC 8739
[48] = tested on: Proteus vulgaris NCTC 4635
[49] = tested on: Pseudomonas aeruginosa ATCC 9027

- MIC [1]: 28.9 µM (≈ 50 µg/mL)
- MIC [2]: 14.4 µM (≈ 25 µg/mL)
- MIC [3]: ≥ 57.7 µM
- MIC [4]: ≥ 57.7 µM
- MIC [5]: 14.4 µM (≈ 25 µg/mL)
- MIC [6]: 14.4 µM (≈ 25 µg/mL)
SMILES: CC[C@H](C)[C@H](NC(=O)[C@H](CC(C)C)NC(=O)[C@H](CO)NC(=O)[C@@H]1CCCN1C(=O)[C@@H](NC(=O)[C@H](CC(C)C)NC(=O)CNC(=O)[C@H](Cc1ccccc1)NC(=O)[C@@H](N)CC(C)C)[C@@H](C)CC)C(=O)NCC(=O)NCC(=O)N[C@@H](CC(C)C)C(=O)N[C@H](C(=O)N[C@@H](CO)C(=O)N[C@@H](C)C(=O)N[C@@H](Cc1ccccc1)C(=O)N[C@@H](CCCCN)C(N)=O)C(C)C [LFGLIPSLIGGLVSAFK]

- MIC [7]: ≥ 50 µM
- MIC [8]: 0.78 µM (≈ 1.79 µg/mL)
- MIC [9]: ≥ 50 µM
- MIC [10]: 6.25 µM (≈ 14.4 µg/mL)
- MIC [11]: ≥ 50 µM
- MIC [12]: 1.56 µM (≈ 3.59 µg/mL)
- MIC [13]: 3.13 µM (≈ 7.2 µg/mL)
- MIC [14]: 6.25 µM (≈ 14.4 µg/mL)
- MIC [15]: 1.56 µM (≈ 3.59 µg/mL)
- MIC [16]: 6.25 µM (≈ 14.4 µg/mL)
- MIC [17]: 25 µM (≈ 57.5 µg/mL)
SMILES: CC[C@H](C)[C@H](NC(=O)[C@@H]1CCCN1C(=O)[C@H](CCCCN)NC(=O)[C@H](Cc1ccccc1)NC(=O)[C@H](CC(C)C)NC(=O)[C@H](Cc1cnc[nH]1)NC(=O)[C@H](CC(C)C)NC(=O)[C@H](C)NC(=O)[C@H](CCCCN)NC(=O)[C@H](CCCCN)NC(=O)[C@@H](N)Cc1ccccc1)C(=O)N[C@@H](CCCCN)C(=O)N[C@@H](CCCCN)C(=O)N[C@@H](Cc1ccccc1)C(=O)N[C@@H](CC(C)C)C(=O)N[C@@H](CCCCN)C(=O)N[C@@H](Cc1c[nH]c2ccccc12)C(=O)N[C@@H](CCCCN)C(N)=O [FKKALHLFKPIKKFLKWK]

- MIC [18]: 1.37 µM (≈ 3.09 µg/mL)
- MIC [19]: 0.25 µM (≈ 0.566 µg/mL)
- MIC [20]: 0.707 µM (≈ 1.6 µg/mL)
- MIC [21]: 0.982 µM (≈ 2.22 µg/mL)
- MIC [22]: 2.78 µM (≈ 6.29 µg/mL)
- MIC [23]: 0.705 µM (≈ 1.6 µg/mL)
- MIC [24]: 0.982 µM (≈ 2.22 µg/mL)
- MIC [25]: 0.982 µM (≈ 2.22 µg/mL)
- MIC [26]: 2.78 µM (≈ 6.29 µg/mL)
- MIC [27]: 5.51 µM and 2 µM
- MIC [28]: 5.66 µM (≈ 12.8 µg/mL)
SMILES: CC[C@H](C)[C@@H]1NC(=O)CNC(=O)[C@H](CCCN=C(N)N)NC(=O)[C@H](Cc2ccc(O)cc2)NC(=O)[C@@H]2CSSC[C@H](NC1=O)C(=O)N[C@@H](Cc1ccc(O)cc1)C(=O)N[C@@H](CCCN=C(N)N)C(=O)N[C@@H](CCCCN)C(=O)N[C@H](C(=O)N[C@@H](CCCN=C(N)N)C(N)=O)CSSC[C@H](NC(=O)[C@H](Cc1c[nH]c3ccccc13)NC(=O)[C@@H](N)CCCN=C(N)N)C(=O)N[C@@H](Cc1ccccc1)C(=O)N[C@@H](CCCN=C(N)N)C(=O)N[C@@H](C(C)C)C(=O)N2 [RWCFRVCYRGICYRKCR]

- MIC [46]: 5.71 µM (≈ 8 µg/mL)
- MIC [47]: ≥ 45.7 µM
- MIC [48]: ≥ 183 µM
- MIC [49]: 183 µM (≈ 256 µg/mL)
- MIC [28]: 22.8 µM (≈ 32 µg/mL)
SMILES: CC[C@H](C)[C@H](NC(=O)[C@@H](NC(=O)[C@H](CO)NC(=O)[C@H](C)NC(=O)[C@@H](NC(=O)[C@H](CCCCN)NC(=O)[C@H](CCCCN)NC(=O)[C@@H](NC(=O)[C@@H](NC(=O)[C@H](C)NC(=O)[C@H](Cc1ccccc1)NC(=O)[C@H](CC(C)C)NC(=O)CN)C(C)C)[C@@H](C)CC)C(C)C)C(C)C)C(=O)NCC(=O)O [GLFAVIKKVASVIG]

The remaining lines, values behind:

SMILES: CC[C@H](C)[C@@H]1NC(=O)[C@H](CCSC)NC(=O)[C@@H](NC(=O)[C@H](CC(C)C)NC(=O)[C@H](CC(C)C)NC(=O)[C@H](CO)NC(=O)[C@@H]2CCCN2C(=O)[C@H](CC(C)C)NC(=O)[C@H](CC(C)C)NC(=O)[C@H](CCCCN)NC(=O)[C@@H](NC(=O)[C@@H](NC(=O)[C@H](C)NC(=O)CNC(=O)[C@H](CC(C)C)NC(=O)[C@H](C)NC(=O)[C@@H](N)Cc2ccccc2)C(C)C)[C@@H](C)O)CSSC[C@@H](C(=O)O)NC(=O)[C@H](CCCCN)NC(=O)[C@H](CCCN=C(N)N)NC(=O)[C@H]([C@@H](C)O)NC1=O [FALGAVTKLLPSLLCMITRKC]
- MIC [29]: 8.25 µM (≈ 18.8 µg/mL)
- MIC [30]: 8.25 µM (≈ 18.8 µg/mL)
- MIC [31]: 1.01 µM (≈ 2.3 µg/mL)
- MIC [32]: ≥ 32.9 µM
- MIC [33]: 2.06 µM (≈ 4.7 µg/mL)
- MIC [34]: 4.12 µM (≈ 9.39 µg/mL)
- MIC [19]: 32.9 µM (≈ 74.9 µg/mL)
- MIC [35]: 32.9 µM (≈ 74.9 µg/mL)
- MIC [36]: 8.25 µM (≈ 18.8 µg/mL)
- MIC [37]: 8.25 µM (≈ 18.8 µg/mL)
- MIC [38]: 2.06 µM (≈ 4.7 µg/mL)
- MIC [39]: 16.5 µM (≈ 37.5 µg/mL)
- MIC [40]: 8.25 µM (≈ 18.8 µg/mL)
- MIC [41]: 4.12 µM (≈ 9.39 µg/mL)

SMILES: CC[C@H](C)[C@H](NC(=O)[C@H](Cc1cnc[nH]1)NC(=O)[C@@H](N)[C@@H](C)O)C(=O)N[C@@H](Cc1cnc[nH]1)C(=O)N[C@@H](CCSC)C(=O)N[C@@H](CC(N)=O)C(=O)N[C@@H](C)C(=O)N[C@@H](CCCN=C(N)N)C(=O)N[C@@H](CC(C)C)C(=O)N[C@@H](CC(C)C)C(=O)N[C@H](C(=O)N[C@@H](CCCN=C(N)N)C(=O)N[C@@H](CO)C(=O)N1CCC[C@H]1C(=O)N[C@@H](Cc1ccccc1)C(=O)N[C@H](C(=O)N[C@@H](CC(=O)O)C(=O)N1CCC[C@H]1C(=O)N[C@@H](CCC(N)=O)C(=O)N[C@@H](CC(C)C)C(=O)O)[C@@H](C)O)[C@@H](C)CC [THIHMNARLLIRSPFTDPQL]
- MIC [42]: ≥ 108 µM
- MIC [43]: ≥ 108 µM
- MIC [44]: > 108 µM
- MIC [45]: > 108 µM
